# From patent publication US20120039850A1, “HCV Combination Therapies Comprising Pegylated Interferon, Ribavirin and Telaprevir” (Janssen Pharmaceutica NV, priority 2009, published 2012)
# Where two headings read alike, the source gives them in different places.
# Legend:
# genotype 1 HCV = assay: PROVE 1 Phase 2b clinical trial: viral response (HCV RNA, Roche COBAS TaqMan assay); type: in vivo, human
# Text: Twenty percent of those treated with telaprevir were either Hispanic (10%) or African American (10%). In the control arm, 8% of patients were Hispanic and 12% were African American. […] On average, patients were 49 years old (21-63 years range) with a mean weight of 82.1 kg (46-136 kg range).
# The Roche COBAS TaqMan® assay was used to measure HCV RNA (LOD 10 IU/mL). For viral kinetic modeling, values reported as <10 IU/mL were replaced with 5 IU/mL.
# Severity of fibrosis was defined by histologic assessment from each center's local pathologist.
# The Roche COBAS TaqMan® assay was used to measure HCV RNA (limit of detection 10 IU/mL). For viral kinetic modeling, values reported as <10 IU/mL were replaced with 5 IU/mL.
# HCV genotype 1 = assay: Phase 1b trial (Study VX04-950-101); conditions: subjects infected with HCV genotype 1
# replicon = assay: Predicted human liver exposure relative to replicon assay IC50/IC90; conditions: dose range studied
# [1] = in vivo
# [2] = design: species or system human; conditions: in vivo
# [3] = test system: VX-950-resistant variants of HCV; assay: IC50 shift of VX-950-resistant variants
compound,measurement,setting,value
CCC[C@H](NC(=O)[C@@H]1[C@H]2CCC[C@H]2CN1C(=O)[C@@H](NC(=O)[C@@H](NC(=O)c1cnccn1)C1CCCCC1)C(C)(C)C)C(=O)C(=O)NC1CC1 [VX-950],% with SVR,genotype 1 HCV,62%
same,% with SVR,genotype 1 HCV; AA (African American),44%
same,% with SVR,genotype 1 HCV; L (Latino),65%
same,antiviral activity,HCV genotype 1,substantial antiviral activity
same,"predicted average liver concentration, fold of the replicon assay IC90",replicon,up to 57 fold
same,oral bioavailability,[1],orally bioavailable
same,pharmacokinetics among the different racial/ethnic groups,[2],No differences
same,fold increase in IC50,[3],7-20 fold
